Laboratory results from PubChem BioAssay (NCI).
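Step 1: Grow cells in 96-well plates. Step 2: Expose to compound for 48 hours at 5 concentrations. Step 3: Interpolate endpoints linearly; if unreached, use highest concentration. TGI: total growth inhibition.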

Key:
Assay in all cases: growth of human tumour cells (NCI), 48 h
[1] = tested on: K-562 leukemia
[2] = tested on: 786-0 renal
[3] = tested on: MDA-N
[4] = tested on: IGROV1 ovarian
[5] = tested on: EKVX NSCLC
[6] = tested on: COLO 205 colon
[7] = tested on: M14 melanoma
[8] = tested on: SK-OV-3 ovarian
[9] = tested on: SF-539 CNS
[10] = tested on: RXF 393 renal
[11] = tested on: UACC-257 melanoma
[12] = tested on: UACC-62 melanoma
[13] = tested on: A549 NSCLC
[14] = tested on: NCI-H460 lung
[15] = tested on: SNB-19 CNS
[16] = tested on: HT29 colon
[17] = tested on: NCI-H226 lung
[18] = tested on: TK-10 renal
[19] = tested on: HL-60(TB) leukemia
[20] = tested on: BT-549 breast
[21] = tested on: KM12 colon
[22] = tested on: OVCAR-5 ovarian
[23] = tested on: MOLT-4 leukemia
[24] = tested on: HCC-2998 colon
[25] = tested on: SK-MEL-5 melanoma
[26] = tested on: SK-MEL-28 melanoma
[27] = tested on: SN12C renal
[28] = tested on: LOX IMVI melanoma
[29] = tested on: SW-620 colon
[30] = tested on: OVCAR-4 ovarian
[31] = tested on: MCF7 breast
[32] = tested on: HCT-116 colon
[33] = tested on: RPMI-8226 leukemia
[34] = tested on: OVCAR-8 ovarian
[35] = tested on: SF-268 CNS
[36] = tested on: CAKI-1 renal
[37] = tested on: ACHN renal
[38] = tested on: DU-145 prostate
[39] = tested on: OVCAR-3 ovarian
[40] = tested on: SNB-75 CNS
[41] = tested on: UO-31 renal
[42] = tested on: MDA-MB-435
[43] = tested on: HS 578T breast
[44] = tested on: HOP-62 NSCLC
[45] = tested on: CCRF-CEM leukemia
[46] = tested on: A498 renal
[47] = tested on: MDA-MB-231 breast
[48] = tested on: HOP-92 NSCLC
[49] = tested on: HCT-15 colon
[50] = tested on: SF-295 CNS
[51] = tested on: MALME-3M melanoma
[52] = tested on: PC-3 prostate
[53] = tested on: SR leukemia
[54] = tested on: NCI/ADR-RES ovarian
[55] = tested on: SK-MEL-2 melanoma
[56] = tested on: U251 CNS
[57] = tested on: NCI-H23 lung
[58] = tested on: NCI-H522 lung
[59] = tested on: T-47D breast

`O=[N+]([O-])c1ccccc1S(=O)(=O)c1cccc2c1NCCC2` was tested, and the TGI [1] was over 100 µM, the TGI [2] was over 100 µM and the TGI [3] was over 100 µM. It also gave a TGI [4] of over 100 µM, a TGI [5] of over 100 µM and a TGI [6] of over 100 µM. It also gave a TGI [7] of over 100 µM, a TGI [8] of over 100 µM and a TGI [9] of over 100 µM. It also gave a TGI [10] of over 100 µM, a TGI [11] of 63.2 µM and a TGI [12] of over 100 µM. The TGI [13] was over 100 µM, the TGI [14] was over 100 µM and the TGI [15] was over 100 µM. For the same compound, the TGI [16] was over 100 µM, the TGI [17] was over 100 µM and the TGI [18] was over 100 µM. The TGI [19] was over 100 µM, the TGI [20] was over 100 µM and the TGI [21] was over 100 µM. The TGI [22] was over 100 µM, the TGI [23] was over 100 µM and the TGI [24] was over 100 µM. For the same compound, the TGI [25] was 52.3 µM, the TGI [26] was over 100 µM and the TGI [27] was over 100 µM. It also gave a TGI [28] of over 100 µM, a TGI [29] of over 100 µM and a TGI [30] of over 100 µM. It also gave a TGI [31] of over 100 µM, a TGI [32] of over 100 µM and a TGI [33] of over 100 µM. The TGI [34] was over 100 µM, the TGI [35] was over 100 µM and the TGI [36] was over 100 µM. The TGI [37] was over 100 µM, the TGI [38] was over 100 µM and the TGI [39] was over 100 µM. It also gave a TGI [40] of over 100 µM, a TGI [41] of over 100 µM and a TGI [42] of over 100 µM. The TGI [43] was over 100 µM, the TGI [44] was over 100 µM and the TGI [45] was over 100 µM. For the same compound, the TGI [46] was over 100 µM, the TGI [47] was over 100 µM and the TGI [48] was over 100 µM. For the same compound, the TGI [49] was over 100 µM, the TGI [50] was over 100 µM and the TGI [51] was over 100 µM. The TGI [52] was over 100 µM, the TGI [53] was over 100 µM and the TGI [54] was over 100 µM. For the same compound, the TGI [55] was over 100 µM.

In the case of `C=C1[C@@H](OC(C)=O)/C=C/C2C3C(=O)[C@@](C)(OC(C)=O)[C@H]([C@H](OC(C)=O)[C@]4(O)[C@@H](C)C(=O)O[C@H]4[C@H]1Cl)[C@@]23C` (stereo not given in full), the TGI [1] is reported as over 100 µM, the TGI [56] is reported as over 100 µM and the TGI [2] is reported as over 100 µM. It also gave a TGI [3] of over 100 µM, a TGI [4] of over 100 µM and a TGI [5] of over 100 µM. The TGI [6] was over 100 µM, the TGI [7] was over 100 µM and the TGI [8] was over 100 µM. It also gave a TGI [57] of over 100 µM, a TGI [10] of over 100 µM and a TGI [11] of over 100 µM. For the same compound, the TGI [12] was over 100 µM, the TGI [13] was over 100 µM and the TGI [14] was over 100 µM. For the same compound, the TGI [15] was over 100 µM, the TGI [16] was over 100 µM and the TGI [17] was over 100 µM. It also gave a TGI [18] of over 100 µM, a TGI [20] of over 100 µM and a TGI [21] of over 100 µM. For the same compound, the TGI [22] was over 100 µM, the TGI [23] was over 100 µM and the TGI [24] was over 100 µM. The TGI [25] was over 100 µM, the TGI [58] was over 100 µM and the TGI [26] was over 100 µM. It also gave a TGI [27] of over 100 µM, a TGI [28] of over 100 µM and a TGI [29] of over 100 µM. For the same compound, the TGI [30] was over 100 µM, the TGI [32] was over 100 µM and the TGI [33] was over 100 µM. For the same compound, the TGI [34] was over 100 µM, the TGI [35] was over 100 µM and the TGI [36] was over 100 µM. It also gave a TGI [37] of over 100 µM, a TGI [38] of over 100 µM and a TGI [39] of over 100 µM. The TGI [40] was over 100 µM, the TGI [41] was over 100 µM and the TGI [42] was over 100 µM. The TGI [43] was over 100 µM, the TGI [44] was over 100 µM and the TGI [45] was over 100 µM. The TGI [46] was over 100 µM, the TGI [47] was over 100 µM and the TGI [48] was over 100 µM. It also gave a TGI [49] of over 100 µM, a TGI [50] of over 100 µM and a TGI [51] of over 100 µM. It also gave a TGI [52] of over 100 µM, a TGI [59] of over 100 µM and a TGI [54] of over 100 µM. It also gave a TGI [55] of over 100 µM.
